In ChEMBL document CHEMBL1201862, “PubChem BioAssay data set” (2004):
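Exposure lasted 48 hours, with cells grown in 96-well plates and compounds tested at five concentrations. At the GI50, growth is halved.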 The source made the active and inactive calls. No stated cut-off is given here; in the data, active = GI50 up to about 1.1 µM and inactive = higher.

Assays:
Experiment in all cases: NCI-60 cell line screen, 48 h
786-0 = tested on: 786-0
BT-549 = tested on: BT-549
COLO 205 = tested on: COLO 205
HCC 2998 = tested on: HCC 2998
HL-60 = tested on: HL-60
HOP-62 = tested on: HOP-62
HOP-92 = tested on: HOP-92
HT-29 = tested on: HT-29
K562 = tested on: K562
KM12 = tested on: KM12
LOX IMVI = tested on: LOX IMVI
MOLT-4 = tested on: MOLT-4
NCI-H522 = tested on: NCI-H522
NCI/ADR-RES = tested on: NCI/ADR-RES
OVCAR-4 = tested on: OVCAR-4
SF-539 = tested on: SF-539
EKVX = tested on: EKVX
NCI-H460 = tested on: NCI-H460
SK-MEL-2 = tested on: SK-MEL-2
UO-31 = tested on: UO-31

Measured: GI50

COc1cc(/C=N\NC(=O)C[N+](C)(C)C)cc(OC)c1OC
inactive: 786-0 > 10 µM | BT-549 > 10 µM | COLO 205 > 10 µM | HCC 2998 > 10 µM | HL-60 > 10 µM | HOP-62 > 10 µM | HOP-92 > 10 µM | HT-29 > 10 µM | K562 > 10 µM | KM12 > 10 µM | LOX IMVI > 10 µM | MOLT-4 > 10 µM | NCI-H522 > 10 µM | NCI/ADR-RES > 10 µM | OVCAR-4 > 10 µM | SF-539 > 10 µM

COc1cc(C)cc2c1c(=O)c1ccccc1n2C
inactive: 786-0 38.5 µM | BT-549 37.9 µM | COLO 205 27.2 µM | EKVX 55.3 µM | HCC 2998 45.7 µM | HL-60 33.7 µM | HOP-62 41.4 µM | HOP-92 31.4 µM | HT-29 28.7 µM | K562 18.2 µM | KM12 34.4 µM | LOX IMVI 16.8 µM | MOLT-4 31.3 µM | NCI-H460 32.7 µM | NCI-H522 34 µM | NCI/ADR-RES 33.8 µM | OVCAR-4 35.3 µM | SF-539 20.2 µM | SK-MEL-2 15.9 µM

O=c1c2cccnc2[nH]c2ccc3[nH]ncc3c12
inactive: 786-0 > 10 µM | BT-549 > 10 µM | COLO 205 > 10 µM | EKVX 9.33 µM | HCC 2998 > 10 µM | HL-60 > 10 µM | HOP-62 > 10 µM | HOP-92 > 10 µM | HT-29 > 10 µM | K562 > 10 µM | KM12 5.45 µM | LOX IMVI 2.91 µM | MOLT-4 > 10 µM | NCI-H460 > 10 µM | NCI-H522 > 10 µM | NCI/ADR-RES > 10 µM | OVCAR-4 > 10 µM | SF-539 > 10 µM | SK-MEL-2 > 10 µM

O=C(Nc1ccccc1)c1cc(S(=O)(=O)Nc2n[nH]c(=O)[nH]2)c(SSc2cc(Cl)c(C(=O)Nc3ccccc3)cc2S(=O)(=O)Nc2n[nH]c(=O)[nH]2)cc1Cl
inactive: 786-0 > 100 µM | BT-549 > 100 µM | COLO 205 > 100 µM | EKVX > 100 µM | HCC 2998 > 100 µM | HL-60 > 100 µM | HOP-62 > 100 µM | HOP-92 > 100 µM | HT-29 > 100 µM | K562 55.5 µM | KM12 > 100 µM | LOX IMVI > 100 µM | MOLT-4 > 100 µM | NCI-H460 > 100 µM | NCI-H522 > 100 µM | NCI/ADR-RES > 100 µM | OVCAR-4 > 100 µM | SK-MEL-2 > 100 µM | UO-31 > 100 µM

Cc1ccc(/N=N/C(=NNC(=O)c2ccc(C)cc2)c2ccc(N(C)C)cc2)cc1
inactive: 786-0 33.3 µM | BT-549 26.2 µM | COLO 205 12.3 µM | EKVX 30.1 µM | HCC 2998 27.4 µM | HL-60 27.5 µM | HOP-92 28.6 µM | HT-29 31.1 µM | K562 24.9 µM | KM12 16.9 µM | LOX IMVI 33.4 µM | MOLT-4 33 µM | NCI-H460 25.3 µM | NCI-H522 20.9 µM | NCI/ADR-RES 41.3 µM | OVCAR-4 18.5 µM | SF-539 43 µM | SK-MEL-2 38.3 µM | UO-31 26.1 µM

CCc1c[n+]([O-])c(C)cc1[N+](=O)[O-]
inactive: 786-0 97.1 µM | BT-549 > 100 µM | COLO 205 15.6 µM | EKVX 29.6 µM | HCC 2998 24.3 µM | HL-60 > 100 µM | HOP-62 > 100 µM | HOP-92 35.8 µM | HT-29 82.8 µM | K562 48.6 µM | KM12 45.4 µM | LOX IMVI > 100 µM | MOLT-4 > 100 µM | NCI-H460 20.7 µM | NCI-H522 55.3 µM | NCI/ADR-RES > 100 µM | SF-539 > 100 µM | SK-MEL-2 21 µM | UO-31 > 100 µM

O=C(O)c1c2c(cc3c1CC1(Cc4ccccc4C1)C3)CCC2
inactive: 786-0 80 µM | BT-549 20.8 µM | COLO 205 57.7 µM | EKVX 40.6 µM | HCC 2998 > 100 µM | HL-60 41.4 µM | HOP-62 > 100 µM | HOP-92 14.9 µM | HT-29 73.8 µM | K562 59.3 µM | KM12 59.3 µM | LOX IMVI 24.8 µM | MOLT-4 82.8 µM | NCI-H460 25.9 µM | NCI-H522 49.1 µM | NCI/ADR-RES 35.4 µM | OVCAR-4 58.2 µM | SF-539 > 100 µM | UO-31 30.3 µM

CCOP(=O)(OCC)/C(C#N)=C/c1nccn1C
inactive: 786-0 > 100 µM | BT-549 > 100 µM | COLO 205 > 100 µM | EKVX > 100 µM | HCC 2998 > 100 µM | HL-60 > 100 µM | HOP-62 > 100 µM | HOP-92 63 µM | HT-29 > 100 µM | K562 > 100 µM | KM12 > 100 µM | LOX IMVI > 100 µM | MOLT-4 > 100 µM | NCI-H460 > 100 µM | NCI-H522 > 100 µM | NCI/ADR-RES > 100 µM | SF-539 > 100 µM | SK-MEL-2 > 100 µM | UO-31 > 100 µM

CCCCCCCCCCCCCCCCS(=O)(=O)c1ccc(NN)cc1
inactive: 786-0 > 10 µM | BT-549 > 10 µM | COLO 205 > 10 µM | EKVX > 10 µM | HCC 2998 > 10 µM | HL-60 1.5 µM | HOP-62 > 10 µM | HOP-92 7.1 µM | HT-29 > 10 µM | K562 2.71 µM | KM12 > 10 µM | LOX IMVI 4.29 µM | MOLT-4 6.43 µM | NCI-H460 > 10 µM | NCI-H522 5.9 µM | NCI/ADR-RES > 10 µM | OVCAR-4 8.17 µM | SF-539 7.43 µM | SK-MEL-2 > 10 µM

COC(=O)C(COC(=O)/C=C/c1ccc(OC(C)=O)c(OC(C)=O)c1)NC(=O)/C=C/c1ccc(OC(C)=O)c(OC(C)=O)c1 (configuration not stated)
inactive: 786-0 17.9 µM | BT-549 25.2 µM | COLO 205 20.7 µM | EKVX 25.5 µM | HCC 2998 19.4 µM | HL-60 25.2 µM | HOP-62 23 µM | HOP-92 32.7 µM | HT-29 19.8 µM | K562 > 100 µM | KM12 17.6 µM | LOX IMVI 16.3 µM | MOLT-4 38.3 µM | NCI-H460 21.3 µM | NCI-H522 18.1 µM | NCI/ADR-RES 45.8 µM | OVCAR-4 20.7 µM | SF-539 31.8 µM | SK-MEL-2 18.3 µM
